Results taken from US20230111310A1, “CARBOXYLIC ACID DERIVATIVE-SUBSTITUTED IMINO ARYL COMPOUND, PREPARATION METHOD THEREFOR, HERBICIDAL COMPOSITION AND USE THEREOF” (Qingdao Kingagroot Chemical Compound Co., Ltd., priority 2020, published 2023).

Tests used:
Test in all cases: Weeding effect in post-emergence stage
Type in all cases: in vivo
[1] = system: Eleusine indica; conditions: for Weeding effect in post-emergence stage, Eleusine indica (level): fresh weight control rate level; for Weeding effect in post-emergence stage, Eleusine indica: level of fresh weight growth control rate
How it was run: (§1)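 Weeds were treated post-emergence at 2-3 leaves with compound doses from 7.5 up to 500 g/ha, formulated in acetone–Tween 80 with methyl oleate synergist. Efficacy was assessed as growth control after 3 weeks.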

[2] = system: Setaria viridis; conditions: for Weeding effect in post-emergence stage, Setaria viridis (level): fresh weight control rate level; for Weeding effect in post-emergence stage, Setaria viridis: level of fresh weight growth control rate
How it was run: as §1

[3] = system: Alopecurus japonicus; conditions: for Weeding effect in post-emergence stage, Alopecurus japonicus (level): fresh weight control rate level; for Weeding effect in post-emergence stage, Alopecurus japonicus: level of fresh weight growth control rate
How it was run: as §1

[4] = system: Digitaria sanguinalis; conditions: for Weeding effect in post-emergence stage, Digitaria sanguinalis (level): fresh weight control rate level; for Weeding effect in post-emergence stage, Digitaria sanguinalis: level of fresh weight growth control rate
How it was run: as §1

[5] = system: Abutilon theophrasti; conditions: for Weeding effect in post-emergence stage, Abutilon theophrasti (level): fresh weight control rate level; for Weeding effect in post-emergence stage, Abutilon theophrasti: level of fresh weight growth control rate
How it was run: as §1

[6] = system: Echinochloa crusgalli; conditions: for Weeding effect in post-emergence stage, Echinochloa crusgalli (level): fresh weight control rate level; for Weeding effect in post-emergence stage, Echinochloa crusgalli: level of fresh weight growth control rate
How it was run: as §1

SMILES | Weeding effect in post-emergence stage, Eleusine indica ([1]; Dose 15 g/ha) | Weeding effect in post-emergence stage, Setaria viridis ([2]; Dose 15 g/ha) | Weeding effect in post-emergence stage, Alopecurus japonicus ([3]; Dose 15 g/ha) | Weeding effect in post-emergence stage, Digitaria sanguinalis ([4]; Dose 15 g/ha) | Weeding effect in post-emergence stage, Abutilon theophrasti ([5]; Dose 15 g/ha) | Weeding effect in post-emergence stage, Echinochloa crusgalli ([6]; Dose 15 g/ha) | further results
COC(=O)C(Cc1ccccc1)O/N=C/c1cc(-n2c(=O)cc(C(F)(F)F)n(C)c2=O)c(F)cc1Cl (racemic) [Compound 469] |  |  |  |  |  |  | Weeding effect in post-emergence stage, Eleusine indica (level) ([1]; Dose 15 g/ha): 5 (Level 5: growth control rate is above 85%); Weeding effect in post-emergence stage, Setaria viridis (level) ([2]; Dose 15 g/ha): 5 (Level 5: growth control rate is above 85%); Weeding effect in post-emergence stage, Alopecurus japonicus (level) ([3]; Dose 15 g/ha): 5 (Level 5: growth control rate is above 85%); Weeding effect in post-emergence stage, Digitaria sanguinalis (level) ([4]; Dose 15 g/ha): 5 (Level 5: growth control rate is above 85%); Weeding effect in post-emergence stage, Abutilon theophrasti (level) ([5]; Dose 15 g/ha): 5 (Level 5: growth control rate is above 85%); Weeding effect in post-emergence stage, Echinochloa crusgalli (level) ([6]; Dose 15 g/ha): 5 (Level 5: growth control rate is above 85%)
COC(=O)C(C)O/N=C/c1cc(-n2c(=O)c(C)c(C(F)(F)F)n(C)c2=O)c(F)cc1Cl (racemic) [Compound 473] |  |  |  |  |  |  | Weeding effect in post-emergence stage, Eleusine indica (level) ([1]; Dose 30 g/ha): 5 (Level 5: growth control rate is above 85%); Weeding effect in post-emergence stage, Setaria viridis (level) ([2]; Dose 30 g/ha): 5 (Level 5: growth control rate is above 85%); Weeding effect in post-emergence stage, Alopecurus japonicus (level) ([3]; Dose 30 g/ha): 5 (Level 5: growth control rate is above 85%); Weeding effect in post-emergence stage, Digitaria sanguinalis (level) ([4]; Dose 30 g/ha): 5 (Level 5: growth control rate is above 85%); Weeding effect in post-emergence stage, Abutilon theophrasti (level) ([5]; Dose 30 g/ha): 5 (Level 5: growth control rate is above 85%); Weeding effect in post-emergence stage, Echinochloa crusgalli (level) ([6]; Dose 30 g/ha): 5 (Level 5: growth control rate is above 85%)
CCOC(=O)[C@@H](C)O/N=C/c1cc(-n2c(=O)n(C)c(=S)n(C)c2=O)c(F)cc1Cl [3(R)] | 5 (Level 5: growth control rate is above 85%) | 5 (Level 5: growth control rate is above 85%) | 4 (Level 4: growth control rate is greater than or equal to 60% and less than 85%) | 5 (Level 5: growth control rate is above 85%) | 5 (Level 5: growth control rate is above 85%) | 5 (Level 5: growth control rate is above 85%) | 
CCCOC(=O)[C@@H](C)O/N=C/c1cc(-n2c(=O)n(C)c(=S)n(C)c2=O)c(F)cc1Cl [4(R)] | 5 (Level 5: growth control rate is above 85%) | 5 (Level 5: growth control rate is above 85%) | 5 (Level 5: growth control rate is above 85%) | 5 (Level 5: growth control rate is above 85%) | 5 (Level 5: growth control rate is above 85%) | 5 (Level 5: growth control rate is above 85%) | 
CC(C)OC(=O)[C@@H](C)O/N=C/c1cc(-n2c(=O)n(C)c(=S)n(C)c2=O)c(F)cc1Cl [5(R)] | 5 (Level 5: growth control rate is above 85%) | 5 (Level 5: growth control rate is above 85%) | 5 (Level 5: growth control rate is above 85%) | 5 (Level 5: growth control rate is above 85%) | 5 (Level 5: growth control rate is above 85%) | 5 (Level 5: growth control rate is above 85%) | 
C=CCCOC(=O)[C@@H](C)O/N=C/c1cc(-n2c(=O)n(C)c(=S)n(C)c2=O)c(F)cc1Cl [6(R)] | 5 (Level 5: growth control rate is above 85%) | 5 (Level 5: growth control rate is above 85%) | 5 (Level 5: growth control rate is above 85%) | 5 (Level 5: growth control rate is above 85%) | 5 (Level 5: growth control rate is above 85%) | 5 (Level 5: growth control rate is above 85%) | 
C[C@@H](O/N=C/c1cc(-n2c(=O)n(C)c(=S)n(C)c2=O)c(F)cc1Cl)C(=O)OCC1CC1 [9(R)] | 5 (Level 5: growth control rate is above 85%) | 5 (Level 5: growth control rate is above 85%) | 5 (Level 5: growth control rate is above 85%) | 5 (Level 5: growth control rate is above 85%) | 5 (Level 5: growth control rate is above 85%) | 5 (Level 5: growth control rate is above 85%) | 
C[C@@H](O/N=C/c1cc(-n2c(=O)n(C)c(=S)n(C)c2=O)c(F)cc1Cl)C(=O)OCCF [10(R)] | 5 (Level 5: growth control rate is above 85%) | 5 (Level 5: growth control rate is above 85%) | 5 (Level 5: growth control rate is above 85%) | 5 (Level 5: growth control rate is above 85%) | 5 (Level 5: growth control rate is above 85%) | 5 (Level 5: growth control rate is above 85%) | 
